In patent EP4663632A1, “COMPOUNDS USEFUL FOR THE MODULATION OF THE ACTIVITY OF STING” (Sulis Therapeutics ApS, priority 2024, dated 2025):
pIC50: −log10 of the molar value.

Tests used:
[1] = target: T1, C-terminal domain (CTD) of human STING (Homo sapiens, UniProt Q86WV6); assay: STING binding FP assay III; parameters: recombinant human STING protein (155-379); settings: 10 nM STING (FP assay III according to the text); read-out: STING binding FP assay II, IC50
Procedure: (§1) The interaction between molecules and the C-terminal domain (CTD) of human STING was evaluated using a competition binding assay. In this assay, recombinant human STING protein (155-379) and a STING binding fluorescent probe were employed. Upon binding of the probe to STING, the rotation of the fluorescent probe is slowed due to the larger molecular size of the protein-bound complex. As a result, emitted light retains its plane of polarization, leading to an increase in fluorescence polarization. Molecules competing for the probe binding site displace the probe, which leads to rapid randomization of the polarization plane of the emitted light and a subsequent decrease in measured fluorescence polarization signal. Change in polarization was measured, allowing a comparative evaluation of the binding affinities of different compounds to the target protein.
(§2) The assay was performed in 96-well plates (ThermoFisher, cat.# 237108) containing 100µl : 10 µL test compound in 10% DMSO and buffer A (150 mM NaCl, 50 mM HEPES pH 7.5, 1 mM DTT) + 90 µL prepared master mix solution of: 4 nM fluorescein-labelled STING ligand (Probe 1; synthesis described above) in buffer A + 0.055% Tween-20 (v/v) and 35 nM STING in buffer A. Post mixing, plates were agitated at 600rpm and incubated for 20 min at room temperature. Subsequent measurements of the fluorescence polarization signal were made on a BioTek Synergy-H1 plate reader, using a polarization filter; Exc: 485/20 nm, Em: […]) with a gain-setting of 75. IC50 values were determined using a standard non-linear regression four-parameter curve fit in Graphpad Prism.
The procedure for STING binding FP assay III is the same as described for STING binding FP assay I, except for a lower STING concentration. In STING binding FP assay III, a concentration of 10 nM STING in buffer A was used.

STING [2] = target: T2, STING (Homo sapiens, UniProt Q86WV6); assay: Western Blot analysis for STING degradation (DC50) in HFF-1 cells; type: cell-based; parameters: host or cells: HFF-1 human foreskin fibroblasts; settings: 24h
Procedure: To assess STING degradation in human foreskin fibroblasts HFF-1 cells (ATCC, SCRC-1041) cells were seeded at a density of 60.000 cells/well in 24-well Nunclon Delta surface treated culture plate in DMEM growth medium (supplemented with 10% FBS, 1% Pen-strep). Cells were incubated over-night at 37°C 5% CO2 to allow adhesion. Next day growth medium was renewed and a 5x concentration of test compounds (2.5% DMSO) diluted in growth medium were added to the appropriate well. The final DMSO concentration were 0.5%. Cell culture plates were returned to the incubator for additional 24h.
For cell lysing for Western Blot analysis cell culture plates were brought to ice, supernatant was removed by aspiration and cells washed 2x in ice-cold DPBS. Cells were lysed in 65 µL of RIPA buffer supplemented with cOmplete ULTRA Tablets protease inhibitor cocktail, PIERCE Phosphatase inhibitor mini tablet, Benzonase and 10mM NaF for 20 min on ice. Lysates were collected, cleared by centrifugation (13000xg for 10 min at 4°C). Samples were either analysed directly or stored at -80°C until analysis.
For Western Blotting, total protein concentration in each lysate was determined using PIERCE Gold BCA Assay kit according to manufactures protocol. 6 µg of total protein was mixed with 2x Laemmli buffer containing DTT, boiled for 5 min at 95°C, cooled on ice and loaded into each well of a 4-20% Criterion TGX gel. Proteins were separated by electrophoresis, by running for 1h at 150V. After separation proteins were blotted onto a PVDF membrane by semi-dry transfer using Trans-Blot turbo system at pre-defined BioRad MIDI protocol; 25V, 1A (fixed) for 30 min. Membranes were blocked for 1h in 5% skim milk in TBS-T20 on a rocker at room temperature followed by washing and exposure to primary antibodies against human STING 1:1000 (Cell Signalling, #13647) or loading controls Vinculin 1:1000 (Cell Signalling, #13901) or beta-Actin 1:10000 (Sigma, A5441) all diluted in 5% BSA in TBS-T20. Membranes were probed over night at 4°C on a rocker. Membranes were washed 3x in TBS-T20 followed by exposure to secondary HRP-conjugated anti-rabbit antibody or HRP-conjugated anti-mouse antibody diluted 1:10000 in 5% skim milk in TBS-T20 as appropriate. Membranes were incubated for 1h at room temperature on a rocker, then washed 3x in TBS-T20.
For generating DC50 values, the intensity of individual bands was measured using imaged and expression levels were calculated as a ratio of STING intensities vs. Reference protein intensities and normalized to DMSO control. The normalized ratios were plotted on a XY curve in GraphPad Prism where DC50 was estimated using a 4-parameter non-linear regression fitting curve.

[3] = target: T1, C-terminal domain (CTD) of human STING; assay: STING binding FP assay II; parameters: recombinant human STING protein (155-379); settings: 7 nM STING
Procedure: as §1, §2
The procedure for STING binding FP assay II is the same as described for STING binding FP assay I, except for a lower STING concentration. In STING binding FP assay II, a concentration of 7 nM STING in buffer A was used.

STING [4] = target: T2, STING; assay: Western Blot analysis of inhibition of STING activation in HFF-1 cells; type: cell-based; parameters: host or cells: HFF-1 human foreskin fibroblasts; settings: for STING, TBK1 and IRF1 phosphorylation: 2 h or 5 h
Procedure: To assess whether S1 STING ligands inhibit STING activation, primary human skin fibroblasts (Figure 5) or HFF-1 cells (Figure 6) were treated with various compounds which comprise only an S1 ligand domain and a Linker domain before undergoing Western Blot analysis as described below.
The cells were lysed and analysed on WB. […] The WB membrane was probed for p-STING, STING, p-IRF3, p-TBK1, and Vinculin.

T2 sequence (Q86WV6 whole entry): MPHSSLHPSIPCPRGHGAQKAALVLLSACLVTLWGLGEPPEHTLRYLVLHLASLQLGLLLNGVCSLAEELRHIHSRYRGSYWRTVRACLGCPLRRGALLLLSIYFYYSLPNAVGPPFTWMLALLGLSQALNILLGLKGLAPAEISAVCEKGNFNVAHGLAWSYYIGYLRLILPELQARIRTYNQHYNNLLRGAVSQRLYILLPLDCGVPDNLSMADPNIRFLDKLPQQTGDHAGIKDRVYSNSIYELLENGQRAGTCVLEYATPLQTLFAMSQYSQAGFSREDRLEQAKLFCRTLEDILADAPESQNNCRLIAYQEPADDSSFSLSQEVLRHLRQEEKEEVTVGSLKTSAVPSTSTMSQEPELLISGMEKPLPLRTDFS
T1 sequence (Q86WV6 155-379): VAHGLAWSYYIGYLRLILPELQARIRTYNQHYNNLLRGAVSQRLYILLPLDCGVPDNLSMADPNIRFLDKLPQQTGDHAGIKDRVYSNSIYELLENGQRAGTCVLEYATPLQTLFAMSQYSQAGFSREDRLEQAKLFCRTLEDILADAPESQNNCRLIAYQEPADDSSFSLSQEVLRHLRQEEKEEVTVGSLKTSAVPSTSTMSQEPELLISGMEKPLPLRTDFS

SMILES | pIC50 [1] | DC50 (STING [2]; reference protein beta-actin) | pIC50 [3] | other results
CCn1nc(C)cc1C(=O)N=c1n(C)c2cc(C(N)=O)ccc2n1CCC(CCn1c(=NC(=O)c2cc(C)nn2CC)n(C)c2cc(C(N)=O)ccc21)OCC(=O)NCCOCCOCCOCCOCCC(=O)NCCOCCOCCOCCNc1cccc2c1C(=O)N(C1CCC(=O)NC1=O)C2=O (stereo not drawn) [Example 11, N-{2-[2-(2-{2-[2-(2,6-Dioxo-3-piperidyl)-1,3-dioxo-4-isoindolinylamino]ethoxy}ethoxy)ethoxy]ethyl}15-{[(3-{5-carbamoyl-2-[(1-ethyl-3-methyl-5-pyrazolyl)carbonylimino]-3-methyl-2,3-dihydro-1H-1,3-benzimidazol-1-yl}-1-(2-{5-carbamoyl-2-[(1-ethyl-3-methyl-5-pyrazolyl)carbonylimino]-3-methyl-2,3-dihydro-1H-1,3-benzimidazol-1-yl}ethyl)propoxy)methyl]carbonylamino}-4,7,10,13-tetraoxapentadecanamide] | 8.28 | < 200 nM |  | 
CCn1nc(C)cc1C(=O)N=c1n(C)c2cc(C(N)=O)ccc2n1CCC(CCn1c(=NC(=O)c2cc(C)nn2CC)n(C)c2cc(C(N)=O)ccc21)OCC(=O)NCCOCCOCCOCCOCCC(=O)NCCOCCOCC(=O)N[C@H]1C[C@@H](C(=O)N[C@@H]2CCCc3ccccc32)N(C(=O)[C@@H](NC(=O)[C@H](C)NC)C2CCCCC2)C1 (stereo partly drawn) [Example 26] | 8.36 |  |  | DC50 (STING [2]; reference protein vinculin): < 200 nM
CCn1nc(C)cc1C(=O)N=c1n(C)c2cc(C(N)=O)ccc2n1CCC(CCn1c(=NC(=O)c2cc(C)nn2CC)n(C)c2cc(C(N)=O)ccc21)OCC(=O)NCCOCCOCCNc1cccc2c1C(=O)N(C1CCC(=O)NC1=O)C2=O (stereo not drawn) [Example 12, 1-(3-{[N-2-(2-{2-[2-(2,6-Dioxo-3-piperidyl)-1,3-dioxo-4-isoindolinylamino]ethoxy}ethoxy)ethylcarbamoyl]methoxy}-5-{5-carbamoyl-2-[(1-ethyl-3-methyl-5-pyrazolyl)carbonylimino]-3-methyl-2,3-dihydro-1H-1,3-benzimidazol-1-yl}pentyl)-2-[(1-ethyl-3-methyl-5-pyrazolyl)carbonylimino]-3-methyl-2,3-dihydro-1H-1 ,3-benzimidazole-5-carboxamide] |  |  | 8.68 | 
CCn1nc(C)cc1C(=O)N=c1n(C)c2cc(C(N)=O)ccc2n1CCC(CCn1c(=NC(=O)c2cc(C)nn2CC)n(C)c2cc(C(N)=O)ccc21)OCC(=O)NCCOCCOCCOCCOCCC(=O)NCCOCCNc1cccc2c1C(=O)N(C1CCC(=O)NC1=O)C2=O (stereo not drawn) [Example 6, N-(2-{2-[2-(2,6-Dioxo-3-piperidyl)-1,3-dioxo-4-isoindolinylamino]ethoxy}ethyl)15-{[(3-{5-carbamoyl-2-[(1-ethyl-3-methyl-5-pyrazolyl)carbonylimino]-3-methyl-2,3-dihydro-1H-1 ,3-benzimidazol-1-yl}-1-(2-{5-carbamoyl-2-[(1-ethyl-3-methyl-5-pyrazolyl)carbonylimino]-3-methyl-2,3-dihydro-1H-1 ,3-benzimidazol-1-yl}ethyl)propoxy)methyl]carbonylamino}-4,7,10,13-tetraoxapentadecanamide] | 8.59 | 200 to 1000 nM |  | 
CCn1nc(C)cc1C(=O)N=c1n(C)c2cc(C(N)=O)ccc2n1CCC(CCn1c(=NC(=O)c2cc(C)nn2CC)n(C)c2cc(C(N)=O)ccc21)OCC(=O)NCCOCCOCCOCCOCCC(=O)NCCOCCOCCOCCOCCOCCNc1cccc2c1C(=O)N(C1CCC(=O)NC1=O)C2=O (stereo not drawn) [Example 25] | 8.51 | < 200 nM |  | 
CCn1nc(C)cc1C(=O)N=c1n(C)c2cc(C(N)=O)ccc2n1CCC(CCn1c(=NC(=O)c2cc(C)nn2CC)n(C)c2cc(C(N)=O)ccc21)OCC(=O)NCCOCCOCCOCCOCCC(=O)NCCOCCOCCOCCOCCOc1cccc(C(=O)c2csc([C@@H]3CCCN3C(=O)[C@@H](NC(=O)[C@H](C)NC)C3CCCCC3)n2)c1 (stereo partly drawn) [Example 17] |  |  | 8.10 | 
CCn1nc(C)cc1C(=O)/N=c1\n(C)c2cc(C(N)=O)ccc2n1CCC(CCn1/c(=N/C(=O)c2cc(C)nn2CC)n(C)c2cc(C(N)=O)ccc21)OCC(=O)NCCOCCOCC(=O)N[C@H](C(=O)N1C[C@H](O)C[C@H]1C(=O)NCc1ccc(-c2scnc2C)cc1)C(C)(C)C (stereo partly drawn) [Example 15] |  |  | 8.77 | 
CCn1nc(C)cc1C(=O)N=c1n(C)c2cc(C(N)=O)ccc2n1CCC(CCn1c(=NC(=O)c2cc(C)nn2CC)n(C)c2cc(C(N)=O)ccc21)OCC(=O)NCCOCCOCCOCCOCCOCCNc1cccc2c1C(=O)N(C1CCC(=O)NC1=O)C2=O (stereo not drawn) [Example 3, 1-(3-{[N-2-(2-{2-[2-(2-{2-[2-(2,6-Dioxo-3-piperidyl)-1,3-dioxo-4-isoindolinylamino]ethoxy}ethoxy)ethoxy]ethoxy}ethoxy)ethylcarbamoyl]methoxy}-5-{5-carbamoyl-2-[(1-ethyl-3-methyl-5-pyrazolyl)carbonylimino]-3-methyl-2,3-dihydro-1H-1 ,3-benzimidazol-1-yl}pentyl)-2-[(1-ethyl-3-methyl-5-pyrazolyl)carbonylimino]-3-methyl-2,3-dihydro-1H-1,3-benzimidazole-5-carboxamide] |  | 200 to 1000 nM |  | 
CCn1nc(C)cc1C(=O)N=c1n(C)c2cc(C(N)=O)ccc2n1CCC(CCn1c(=NC(=O)c2cc(C)nn2CC)n(C)c2cc(C(N)=O)ccc21)OCC(=O)N1CCC[C@H]1c1ccccc1 (stereo partly drawn) [Example A25, 1-(3-{2-[(S)-2-Phenyl-1-pyrrolidinyl]-2-oxoethoxy}-5-{5-carbamoyl-2-[(1-ethyl-3-methyl-5-pyrazolyl)carbonylimino]-3-methyl-2,3-dihydro-1H-1,3-benzimidazol-1-yl}pentyl)-2-[(1-ethyl-3-methyl-5-pyrazolyl)carbonylimino]-3-methyl-2,3-dihydro-1H-1,3-benzimidazole-5-carboxamide] |  |  |  | STING, TBK1 and IRF1 phosphorylation (STING [4]; 5 µM for 15 min prior to 300 nM diABZI): lower compared to cells treated with diABZI c3 alone; STING, TBK1 and IRF1 phosphorylation (STING [4]; 5 µM for 15 min prior to 8 µg/mL cGAMP): lower compared to cells treated with cGAMP alone (with the exception of TBK1 in lane A25); phosphorylation of STING, IRF1 or TBK1 (agonism) (STING [4]; compound as single agent, no activation): no phosphorylation of STING, IRF1 or TBK1 was observed
